The target of experiment [1] is T1, HDAC8 (Homo sapiens, UniProt Q9BY41).
T1 sequence (Q9BY41 1-377): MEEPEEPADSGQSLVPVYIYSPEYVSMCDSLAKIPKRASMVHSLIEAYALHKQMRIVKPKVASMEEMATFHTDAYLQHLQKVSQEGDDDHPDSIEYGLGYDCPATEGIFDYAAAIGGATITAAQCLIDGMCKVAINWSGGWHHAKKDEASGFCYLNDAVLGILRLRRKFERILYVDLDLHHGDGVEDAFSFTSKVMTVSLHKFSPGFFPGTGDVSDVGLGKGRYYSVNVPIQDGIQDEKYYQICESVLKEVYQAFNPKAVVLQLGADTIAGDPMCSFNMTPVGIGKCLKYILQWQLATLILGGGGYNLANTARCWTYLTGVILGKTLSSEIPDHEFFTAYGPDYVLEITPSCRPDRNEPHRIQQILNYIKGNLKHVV
To be noted: cited from earlier work; for Activity (experimental pIC50): Table S2, training and test set molecules, converted from literature IC50; for IC50 / pIC50: Table S1, external validation set.

Experiment [2] deals with T1, HDAC8. In words: HDAC8 activity assay (fluorometric, Sigma CS1010, Boc-Lys(Ac)-AMC). The class given is biochemical. To be noted: read-out: HDAC-8 (IC50 in nM). The procedure:
(§1) HDAC 6 and 8 activities were measured according to the manufacturer’s protocol from Sigma (Cat# CS1010). […] Trichostatin A was used as a reference inhibitor. The Perkin Elmer multimode reader, model-Enspire 2300 was used for fluorescence plate reader.

In the next experiment the target is T2, HDAC6 (Homo sapiens, UniProt Q9UBN7).
T2 sequence (Q9UBN7 1-1215): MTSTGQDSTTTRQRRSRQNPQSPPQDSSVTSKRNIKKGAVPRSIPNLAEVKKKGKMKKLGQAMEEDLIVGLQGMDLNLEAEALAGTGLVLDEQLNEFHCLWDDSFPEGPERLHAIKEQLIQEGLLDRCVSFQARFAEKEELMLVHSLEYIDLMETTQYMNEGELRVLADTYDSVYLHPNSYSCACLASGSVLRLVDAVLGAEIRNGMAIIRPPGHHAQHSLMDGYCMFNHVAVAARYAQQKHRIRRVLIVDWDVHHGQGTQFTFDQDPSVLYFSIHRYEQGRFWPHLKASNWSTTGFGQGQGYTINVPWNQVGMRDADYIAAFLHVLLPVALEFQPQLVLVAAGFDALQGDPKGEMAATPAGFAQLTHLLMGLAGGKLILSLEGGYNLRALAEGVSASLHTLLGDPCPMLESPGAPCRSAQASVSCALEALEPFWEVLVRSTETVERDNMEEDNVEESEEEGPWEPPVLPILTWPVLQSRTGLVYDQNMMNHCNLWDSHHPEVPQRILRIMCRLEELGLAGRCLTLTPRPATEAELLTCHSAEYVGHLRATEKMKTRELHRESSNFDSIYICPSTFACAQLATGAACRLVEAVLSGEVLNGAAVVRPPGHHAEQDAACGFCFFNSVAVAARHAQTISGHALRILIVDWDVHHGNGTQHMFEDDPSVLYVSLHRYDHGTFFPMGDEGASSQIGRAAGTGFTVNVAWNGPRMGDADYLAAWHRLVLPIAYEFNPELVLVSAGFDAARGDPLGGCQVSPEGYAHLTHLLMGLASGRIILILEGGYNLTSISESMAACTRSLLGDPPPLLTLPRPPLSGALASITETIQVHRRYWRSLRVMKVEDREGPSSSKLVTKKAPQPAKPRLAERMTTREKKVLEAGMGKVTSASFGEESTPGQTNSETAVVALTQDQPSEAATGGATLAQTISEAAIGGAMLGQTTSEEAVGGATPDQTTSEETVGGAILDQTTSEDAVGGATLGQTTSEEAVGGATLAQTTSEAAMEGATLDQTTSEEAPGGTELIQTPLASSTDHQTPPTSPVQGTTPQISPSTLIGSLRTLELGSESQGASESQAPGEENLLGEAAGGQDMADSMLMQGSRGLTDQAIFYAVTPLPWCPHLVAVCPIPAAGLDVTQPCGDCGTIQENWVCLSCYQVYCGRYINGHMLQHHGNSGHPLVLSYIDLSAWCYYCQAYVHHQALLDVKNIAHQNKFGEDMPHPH
In words: HDAC6 activity assay (fluorometric, Sigma CS1010, Boc-Lys(Ac)-AMC). The class given is biochemical. To be noted: read-out: HDAC-6 (IC50 in nM). The procedure:
as §1

The source of these data is article PMC6868012, “Discovery of novel potential selective HDAC8 inhibitors by combine ligand-based, structure-based virtual screening and in-vitro biological evaluation” (Scientific Reports, 2019).

Like-named read-outs stand apart in the source and are kept apart here. Where only a bound is given, the exact number is not on record here.

By IC50 is commonly meant the concentration at which inhibition is half-maximal. Usually pIC50 stands for −log10 of the IC50, conventionally taken in molar units.

Turning to `Cc1ccc(S(=O)(=O)NC(=O)NCc2ccc(C(=O)NO)cc2)cc1` [compound 6], the “Activity (experimental pIC50)” value at HDAC8 [1] was 7.310.

For the molecule `O=C(Nc1cccc(-c2cc(C(=O)NO)n[nH]2)c1)c1ccccc1` [compound 18], on HDAC8 [1], the “IC50” value is 150 nM, the negative logarithm of the IC50 (pIC50) is listed as 6.824 and the “Activity (experimental pIC50)” value was 6.456.

In the case of `O=C(NO)c1ccc(NC(=S)NN=C(c2ccccc2)c2ccccc2)cc1` [compound 30], the “Activity (experimental pIC50)” value at HDAC8 [1] is on record as 4.633.

For `Cc1ccc(S(=O)(=O)NC(=O)Nc2cccc(/C=C/C(=O)NO)c2)cc1` [compound 5], the “Activity (experimental pIC50)” value on HDAC8 [1] is reported as 7.398.

Take `O=C(COc1ccccc1)Cc1nc(-c2ccc(C(=O)NO)s2)cs1` [compound 3]: the “Activity (experimental pIC50)” value on HDAC8 [1] is 7.420.

Regarding `CN(C)CC(C)(C)Cn1c(CCc2ccccc2)nc2cc(/C=C/C(=O)NO)ccc21` [compound 19], at HDAC8 [1], the “IC50” value is 120 nM and the negative logarithm of the IC50 (pIC50) was 6.921.

As for `O=C(NO)c1ccc(-c2cccc(CNCCc3ccccn3)c2)s1` [compound 7], the “Activity (experimental pIC50)” value on HDAC8 [1] is reported as 7.301.

For `Cc1ccc(Cc2cn(C)c3cc(C(=O)NO)ccc23)cc1` [compound 2], on HDAC8 [1], the “Activity (experimental pIC50)” value is 7.620.

Turning to `CONC(=O)NCc1ccc2cc(OC)ccc2c1` [SD-05, 1-methoxy-3-((6-methoxynaphthalen-2-yl)methyl)urea], the IC50 on HDAC8 [2] stood at 41.6 nM; on HDAC6 it was 30.9 nM.

With `O=C(Cc1cccc(NC(=O)NC(=O)c2ccccc2)c1)NO` [compound 10], at HDAC8 [1], the “IC50” value was 66000 nM, the pIC50 is 4.18 and the “Activity (experimental pIC50)” value was 6.824.

With `O=C(Cc1ccc(-c2csc(NC(=O)c3ccn(CC4CCNCC4)c3-c3ccccc3)c2)s1)NO` [compound 9], the “Activity (experimental pIC50)” value on HDAC8 [1] is 6.854.

For `COc1cccc(-c2nc(CNc3ccccc3SCC(N)=O)cs2)c1` [SD-01, 2-((2-(((2-(3-methoxyphenyl)thiazol-4-yl)methyl)amino)phenyl)thio)acetamide], the IC50 was 9 nM at HDAC8 [2] and above 100 nM at HDAC6.

`CC(=O)SCC(=O)CCCCCCC(=O)Nc1ccccc1` [compound 11]: on HDAC8 [1], the concentration for half-maximal inhibition (IC50) is 700 nM and the negative-log IC50 (pIC50) is on record as 6.155.

For the molecule `O=C(/C=C/c1ccc2c(c1)ncn2Cc1ccccc1)NO` [compound 21], at HDAC8 [1], the “IC50” value is 52 nM and the negative logarithm of the IC50 (pIC50) is given as 7.284.

For the molecule `O=C(/C=C/c1ccc(CN(CCN2CCCCC2)C(=O)NC(=O)c2ccccc2)cc1)NO` [compound 14], on HDAC8 [1], the “IC50” value is 350 nM, the negative-log IC50 (pIC50) is 6.456 and the “Activity (experimental pIC50)” value is given as 6.638.

`O=C(NO)c1ccc(CN2CCN(C(=O)NC(=O)c3ccccc3)CC2)cc1` [compound 22]: at HDAC8 [1], the half-maximal inhibitory concentration (IC50) was 29 nM, the negative logarithm of the IC50 (pIC50) is 7.538 and the “Activity (experimental pIC50)” value is reported as 6.337.

Consider `O=C(Cc1ccccc1)Nc1nc(-c2cc(C(=O)NO)no2)cs1` [compound 16], for which, on HDAC8 [1], the half-inhibitory concentration (IC50) is 100 nM, the pIC50 is recorded as 7 and the “Activity (experimental pIC50)” value is recorded as 6.469.

`O=C(/C=C/c1ccc(CN(CCc2cc3ccccc3[nH]2)C(=O)NC(=O)c2ccccc2)cc1)NO` [compound 13]: at HDAC8 [1], the “IC50” value is 15700 nM, the negative-log IC50 (pIC50) is 4.804 and the “Activity (experimental pIC50)” value is listed as 6.678.

As to `C[C@H](N)C(=O)NCc1nnc(-c2ccccc2)o1` [compound 31], the “Activity (experimental pIC50)” value at HDAC8 [1] was 7.009.

On to `O=C(/C=C/c1ccc2c(c1)nc(-c1ccccn1)n2C[C@H](O)CO)NO` [compound 17], for which, at HDAC8 [1], the “IC50” value is 1400 nM, the pIC50 is recorded as 5.854 and the “Activity (experimental pIC50)” value is given as 6.463.

Turning to `CN(C)Cc1c(C(=O)NCCOc2ccc(C(=O)NO)cc2)oc2ccccc12` [compound 12], on HDAC8 [1], the half-maximal inhibitory concentration (IC50) was 19700 nM and the pIC50 is given as 4.706.

Take `O=C(CCCCCNC(=O)NC(=O)c1ccccc1)NO` [compound 25]: the “Activity (experimental pIC50)” value at HDAC8 [1] is 5.971.

For `O=C(Cc1ccc(-c2csc(NC(=O)c3cnc([C@H]4CCCNC4)s3)n2)s1)NO` [compound 4], the “Activity (experimental pIC50)” value on HDAC8 [1] is on record as 7.398.

`O=C(/C=C/c1ccc2c(c1)nc(COCc1ccccc1)n2CCc1cccnc1)NO` [compound 15]: at HDAC8 [1], the “IC50” value was 180 nM and the negative-log IC50 (pIC50) is given as 6.745.

As for `NC(=O)Cc1nc(-c2cc3cc(Cl)ccc3o2)cs1` [SD-04, 2-(4-(5-chlorobenzofuran-2-yl)thiazol-2-yl)acetamide], the concentration for half-maximal inhibition (IC50) at HDAC8 [2] and on HDAC6 was above 100 nM each time.

In the case of `CC(/C=C/C(=O)NO)=C\C(C)Cc1ccc(N(C)C)cc1` (stereo not shown) [compound 20], at HDAC8 [1], the “IC50” value was 220 nM, the negative logarithm of the IC50 (pIC50) was 6.658 and the “Activity (experimental pIC50)” value was 6.398.

For the molecule `COC(=O)c1ccc(Oc2coc3cc(OCC(N)=O)ccc3c2=O)cc1` [SD-03, methyl 4-((7-(2-amino-2-oxoethoxy)-4-oxo-4H-chromen-3-yl)oxy)benzoate], the IC50 at HDAC8 [2] and on HDAC6 was above 100 nM each time.
